Laboratory results as given in paper PMC9250534, “Synthesis and direct assay of large macrocycle diversities by combinatorial late-stage modification at picomole scale” (Nature Communications, 2022).
Numbered stars: 1 amine (or outer) side, 2 acyl side, 3 side chain; on linkers, the order of the positions; unused ones are H or OH. Bridge positions count the residues as written; N and C are the ends. Square brackets hold non-standard residues; d marks the D form. Peptide text beside a SMILES is read from it. * marks the point of attachment. Pyrazinoyl(5-oxo-4H) = O=C(c1c[nH]c(=O)cn1)*; 2Thenoyl(5-Cl) = O=C(c1ccc(Cl)s1)*; Cysteamide = C(CS[*:3])N[*:1]; Api = NC1(C(=O)O)CCNCC1; Orn = NCCC[CH](N)C(=O)O; Dap = NC[CH](N)C(=O)O; Bz = O=C(c1ccccc1)*; Mpa = O=C(O)CCS

Molecular target: T1, thrombin (Homo sapiens, UniProt P00734)
T1 construct: consists of two polypeptide chains of 36 (light chain) and 259 amino acid
Experiment: Thrombin inhibition screen of crude macrocycle reactions (residual thrombin activity, fluorogenic substrate Z-Gly-Gly-Arg-AMC)
Assay type: biochemical
Details: 10 µM macrocycle concentration; for % thrombin activity, Original screen / % thrombin activity, Repeat screen: macrocycles containing acid 14, crude reaction; for % thrombin activity, Repeat screen: replicate reaction and screen; for percent residual thrombin activity: crude reactions, Library 1a-l, scaffold AA1-AA2-AA3 combined with 1-16 or '-'
In short: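 Each crude macrocycle (10 μM) was preincubated 10 min at room temperature with thrombin (2 nM final) in Tris-Cl pH 7.4 containing NaCl, MgCl2, CaCl2, 0.1% BSA, 0.01% Triton X-100 and 0.6% DMSO. Z-Gly-Gly-Arg-AMC (50 μM final) was then added. Inhibition came from fluorescence slopes relative to DMSO-only controls.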

Compound | % thrombin activity, Original screen [%] | % thrombin activity, Repeat screen [%] | percent residual thrombin activity [%] | also measured
O=C1CCSSCCNC(=O)[C@H](CNC(=O)c2ccc(Cl)s2)NC(=O)[C@@H](Cc2ccc(O)cc2)NC(=O)c2ccc(cc2)CN1 [X B3 y D3] | 88.0 | 89.2 |  | 
NC(=O)CC[C@@H]1NC(=O)c2ccc(cc2)CNC(=O)[C@H](CCCNC(=O)c2c[nH]c(=O)[nH]c2=O)NC(=O)CCSSCCNC1=O [D2-B3-Q/11] |  |  | 114.755 | 
CC(C)[C@@H]1NC(=O)c2ccc(cc2)CNC(=O)CCSSCCNC(=O)[C@H](CCCCNC(=O)c2ccc(Cl)s2)NC1=O [X B3 V D1] | 102.1 | 107.7 |  | 
CC(C)[C@H]1NC(=O)[C@H](CCCCNC(=O)c2ccccc2)NC(=O)[C@@H]2CCCN2C(=O)CCSSCCNC1=O [B1-D1-v/1] ([Mpa]PK(Bz)[dV]-Cysteamide; disulfide 1-C) |  |  | 107.218 | 
O=C(Cc1c[nH]c2ccccc12)NCCC[C@@H]1NC(=O)CCSSCCNC(=O)[C@H](Cc2ccc(O)cc2)NC(=O)c2cccc(c2)CNC1=O [D2-B5-Y/12] |  |  | 99.266 | 
CC(C)[C@@H]1NC(=O)CCSSCCNC(=O)[C@@H]2CCCN2C(=O)[C@H](CCCCNC(=O)c2ccc(Cl)s2)NC1=O [V-D1-B1/14] ([Mpa]VK(2Thenoyl(5-Cl))P-Cysteamide; disulfide 1-C) |  |  | 105.594 | 
Cc1nnsc1C(=O)NCCCC[C@@H]1NC(=O)[C@@H](Cc2ccc(O)cc2)NC(=O)c2ccc(cc2)CNC(=O)CCSSCCNC1=O [B3-y-D1/15] |  |  | 112.065 | 
C[C@H]1NC(=O)CCSSCCNC(=O)[C@H]2CCCN(C2)C(=O)[C@H](CCCCNC(=O)c2c[nH]c(=O)cn2)NC1=O [a-D1-B4/9] |  |  | 108.338 | 
O=C1CCSSCCNC(=O)C2(CC2)CNC(=O)[C@H](Cc2c[nH]cn2)NC(=O)[C@H](CCCCNC(=O)c2cnccn2)N1 [D1-H-B6/2] |  |  | 113.964 | 
COc1ccc(C(=O)NCCCC[C@@H]2NC(=O)c3cccc(c3)CNC(=O)[C@H](Cc3cnc[nH]3)NC(=O)CCSSCCNC2=O)cn1 [H-B5-D1/10] |  |  | 98.3606 | 
O=C1CCSSCCNC(=O)C2CCCN(C2)C(=O)C(CCCCNC(=O)c2ccc(Cl)s2)NC(=O)C(Cc2ccc(O)cc2)N1 (stereo not shown) [X Y D1 B4] | 97.9 | 97.0 |  | 
CC1NC(=O)CCSSCCNC(=O)c2cccc(c2)CNC(=O)C(CCCCNC(=O)c2ccc(Cl)s2)NC1=O (stereo not shown) [X a D1 B5] | 102.5 | 104.4 |  | 
O=C1CCSSCCNC(=O)C2(CCN(C(=O)c3ccc(Cl)s3)CC2)NC(=O)[C@@H]2CCCN2C(=O)[C@@H](CO)N1 [X s B1 D6] ([Mpa][dS]P[Api](2Thenoyl(5-Cl))-Cysteamide; disulfide 1-C) | 104.7 | 110.4 |  | 
Cc1nnsc1C(=O)NCCC[C@@H]1NC(=O)CCSSCCNC(=O)[C@H](Cc2ccc(O)cc2)NC(=O)c2cccc(c2)CNC1=O [D2-B5-Y/15] |  |  | 91.9104 | 
CC(C)C[C@@H]1NC(=O)[C@H](CCCNC(=O)COc2ccccc2)NC(=O)C2(CC2)CNC(=O)CCSSCCNC1=O [B6-D2-L/13] |  |  | 118.291 | 
O=C1CCSSCCNC(=O)[C@H](CNC(=O)c2ccc(Cl)s2)NC(=O)C2(CC2)CNC(=O)[C@H](Cc2c[nH]c3ccccc23)N1 [X W B6 D3] | 65.4 | 56.1 |  | 
O=C1CCSSCCNC(=O)[C@H]2CCCN(C2)C(=O)[C@H](Cc2ccccc2)NC(=O)[C@H](CCCCNC(=O)c2ccc(Cl)s2)N1 [X D1 F B4] | 99.6 | 102.4 |  | 
CC(C)CC(=O)NCCC[C@@H]1NC(=O)C2(CC2)CNC(=O)CCSSCCNC(=O)[C@H](Cc2ccc(O)cc2)NC1=O [B6-D2-Y/8] |  |  | 103.129 | 
O=C1CCSSCCNC(=O)C2CCCN2C(=O)C(Cc2ccc(O)cc2)NC(=O)C(CCCNC(=O)c2ccc(Cl)s2)N1 (stereo not shown) [X D2 Y B1] ([Mpa][Orn](2Thenoyl(5-Cl))YP-Cysteamide; disulfide 1-C; configuration not given here) | 96.4 | 96.3 |  | 
NC(=O)CC[C@@H]1NC(=O)CCSSCCNC(=O)C2(CCN(C(=O)c3ccc(Cl)s3)CC2)NC(=O)CCNC1=O [X Q B2 D6] | 97.4 | 98.1 |  | 
O=C1CCSSCCNC(=O)[C@H](Cc2ccc(O)cc2)NC(=O)[C@H](CCCCNC(=O)c2c[nH]c(=O)cn2)NC(=O)c2ccc(cc2)CN1 [B3-D1-Y/9] |  |  | 101.633 | 
O=C1CCSSCCNC(=O)C(Cc2c[nH]c3ccccc23)NC(=O)C2CC(NC(=O)c3ccc(Cl)s3)CN2C(=O)c2cccc(c2)CN1 (stereo not shown) [X B5 D5 w] | 112.0 | 122.3 |  | 

Compound | % thrombin activity, Original screen [%] | % thrombin activity, Repeat screen [%] | percent residual thrombin activity [%] | also measured
COc1ccc(C(=O)NCCCC[C@@H]2NC(=O)[C@H](Cc3ccc(O)cc3)NC(=O)C3(CC3)CNC(=O)CCSSCCNC2=O)cn1 [B6-Y-D1/10] |  |  | 104.034 | 
O=C1CCNC(=O)[C@@H](CO)NC(=O)CCSSCCNC(=O)[C@H](CCCCNC(=O)c2c[nH]c(=O)[nH]c2=O)N1 [s-B2-D1/11] |  |  | 113.521 | 
COc1ccc(C(=O)NCCC[C@@H]2NC(=O)CCSSCCNC(=O)CCNC(=O)[C@@H](C)NC2=O)cn1 [D2-a-B2/10] |  |  | 113.133 | 
COc1ccc(C(=O)NCCCC[C@@H]2NC(=O)[C@H](Cc3ccc(O)cc3)NC(=O)CCSSCCNC(=O)[C@H]3CCCN(C3)C2=O)cn1 [Y-D1-B4/10] |  |  | 101.956 | 
O=C1NCCSSCCC(=O)N2CC(NC(=O)c3ccc(Cl)s3)CC2C(=O)NC(CO)C(=O)NCc2ccc1cc2 (stereo not shown) [X D5 s B3] | 92.6 | 101.4 |  | 
O=C1CCNC(=O)C2(CCN(C(=O)c3ccc(Cl)s3)CC2)NC(=O)[C@@H](Cc2ccccc2)NC(=O)CCSSCCN1 [X f D6 B2] | 97.4 | 95.6 |  | 
CC(C)C[C@@H]1NC(=O)c2ccc(cc2)CNC(=O)CCSSCCNC(=O)C2(CCN(C(=O)c3ccc(Cl)s3)CC2)NC1=O [X B3 L D6] | 91.2 | 94.4 |  | 
COc1ccc(C(=O)NCCCC[C@@H]2NC(=O)c3ccc(cc3)CNC(=O)CCSSCCNC(=O)[C@H](Cc3ccc(O)cc3)NC2=O)cn1 [B3-D1-Y/10] |  |  | 99.2373 | 
CC(C)C1NC(=O)C2CCCN2C(=O)C(CNC(=O)c2ccc(Cl)s2)NC(=O)CCSSCCNC1=O (stereo not shown) [X D3 B1 v] ([Mpa][Dap](2Thenoyl(5-Cl))PV-Cysteamide; disulfide 1-C; configuration not given here) | 92.1 | 95.4 |  | % thrombin activity, Original screen (listed as X D3 B1 V): 98.0%; % thrombin activity, Repeat screen (listed as X D3 B1 V): 99.7%
CC1NC(=O)c2ccc(cc2)CNC(=O)C2(CCN(C(=O)c3ccc(Cl)s3)CC2)NC(=O)CCSSCCNC1=O (stereo not shown) [X D6 B3 a] | 92.0 | 95.8 |  | 
CC[C@H](C)[C@@H]1NC(=O)CCSSCCNC(=O)[C@H](CNC(=O)c2ccc(Cl)s2)NC(=O)CCNC1=O [X I B2 D3] | 72.9 | 70.2 |  | 
CC(C)[C@@H]1NC(=O)CCSSCCNC(=O)[C@@H]2CCCN2C(=O)[C@H](CCCCNC(=O)c2c[nH]c(=O)cn2)NC1=O [v-D1-B1/9] ([Mpa]VK(Pyrazinoyl(5-oxo-4H))P-Cysteamide; disulfide 1-C) |  |  | 99.656 | 
CC(C)C[C@@H]1NC(=O)CCSSCCNC(=O)[C@H](CCCNC(=O)COc2ccccc2)NC(=O)[C@H]2CCCN(C2)C1=O [L-B4-D2/13] |  |  | 110.982 | 
C[C@H]1NC(=O)[C@H](CCCNC(=O)Cc2c[nH]c3ccccc23)NC(=O)CCSSCCNC(=O)CCNC1=O [D2-a-B2/12] |  |  | 109.862 | 
CC[C@H](C)[C@@H]1NC(=O)CCSSCCNC(=O)[C@H]2CCCN(C2)C(=O)[C@H](CCCCNC(=O)c2ccc(Cl)s2)NC1=O [X I D1 B4] | 102.2 | 101.6 |  | 
O=C1CCSSCCNC(=O)[C@@H](Cc2ccccc2)NC(=O)c2ccc(cc2)CNC(=O)[C@H](CNC(=O)c2ccc(Cl)s2)N1 [X D3 B3 f] | 77.4 | 84.4 |  | 
NC(=O)CC[C@@H]1NC(=O)[C@H](CCCCNC(=O)c2ccco2)NC(=O)C2(CC2)CNC(=O)CCSSCCNC1=O [B6-D1-Q/16] |  |  | 101.173 | 
O=C1CCSSCCNC(=O)[C@@H](Cc2ccc(O)cc2)NC(=O)[C@H]2CCCN(C2)C(=O)[C@H](CCCCNC(=O)c2ccc(Cl)s2)N1 [X D1 B4 y] | 99.9 | 100.1 |  | 
O=C1CCSSCCNC(=O)C(CO)NC(=O)c2ccc(cc2)CNC(=O)C(CCCCNC(=O)c2ccc(Cl)s2)N1 (stereo not shown) [X D1 B3 S] | 99.2 | 103.2 |  | 
O=C1CCSSCCNC(=O)[C@@H](CNC(=O)c2ccc(Cl)s2)NC(=O)[C@@H](Cc2c[nH]c3ccccc23)NC(=O)C2(CC2)CN1 [X B6 w D4] | 102.8 | 106.2 |  | 
C[C@H]1NC(=O)C2(CCN(C(=O)c3ccc(Cl)s3)CC2)NC(=O)c2cccc(c2)CNC(=O)CCSSCCNC1=O [X B5 D6 a] | 86.2 | 89.2 |  | 
